Consider six compounds from US11261179B2, “Small molecules” (University of Dundee, priority 2017, dated 2022).

In assay [1] the target is T1, pVHL30 (long isoform of VHL) (Homo sapiens, UniProt P40337).
T1 construct: endogenous in cells; host or cells: HeLa
Nature of the assay: Western blot of VHL levels in HeLa cells. It counts as cell-based. To be noted: 1 μM, 10 h. The method, then:
(§1) For single time point treatment experiments, cells were transferred in 6-well plates with 5×10^5 cells per well in 2 ml media in order to achieve 80% confluence the following day. Stock concentrations of compounds were prepared by solubilizing the powder in 100% v/v DMSO to the final desired stock concentration.
(§2) On the day of treatment, all compound samples were prepared as 100-fold concentrated compound solution using DMEM just before treatment. The experiment samples (20 μL) were added to the 6 well plate containing 2 ml of media. The final DMSO concentration was 0.1% v/v. Cells were incubated at 37° C. and 5% CO2 for the desired time before harvesting.
(§3) For time dependent treatment, cells were transferred in 6-well plates with 3×10^5 cells per well in 2 ml media. Samples were prepared as detailed above or the single time point experiments. Treatment was conducted at given time points prior to harvest.
Cells were transferred in 6-well plates with 5×10^5 cells per well in 2 ml media in order to achieve 80% confluence the day after. At t=0, MLN4924 was added into the desired wells at 3 μM final concentration and 0.1% v/v of DMSO. DMSO (0.1% v/v final conc.) was added to the remaining wells in order to match identical conc. of vehicle in all wells. At t=3 h, MG 132 was added into the desired wells at 50 μM final conc. and 0.1% v/v of DMSO. DMSO (0.1% v/v final conc.) was added to the remaining wells in order to achieve the same conc. of vehicle in all the wells. […] DMSO (0.1% v/v final conc.) was added to the remaining wells in order to obtain the same conc. of vehicle in all the wells. The total final concentration of DMSO was therefore 0.3% v/v. Plates were incubated for 4 h at 37° C. and 5% CO2 before harvesting.
Cells were transferred in 6-well plates with 5×10^5 cells per well in 2 ml media in order to achieve 80% confluence the day after. […] Plates were incubated for the desired time at 37° C. and 5% CO2 before harvesting.
For this experiments, cells were transferred in 6-well plates with 5×10^5 cells per well in 2 ml media in order to achieve 80% confluence the day after. […] Plates were incubated for the desired time at 37° C. and 5% CO2 before harvesting.
(§4) Cells were lysed in lysis buffer (20 mM Tris pH 8, 150 mM NaCl, 1% Triton x100) and a protease inhibitor cocktail (Roche) per 10 ml buffer. For protein extracts, the dishes were placed on ice. The media was aspirated and the tissue layer washed twice with ice-cold phosphate buffer saline (PBS). Lysis buffer (120 μl) was added and the cells detached from the surface with a cell scraper. After removal of the insoluble fraction by centrifugation, the protein concentration of the supernatant was determined by Pierce™ Coomassie (Bradford) Protein Assay Kit. Protein extracts were fractionated by SDS-PAGE on 4-12% Tris-Acetate NuPage® Novex® (Life Technologies) polyacrylamide gels and transferred to a nitrocellulose membrane using wet transfer. The membrane was then blocked with 5% w/v Bovine serum albumin (BSA) in Tris-buffered saline (TBS) with 0.1% w/v Tween-20. For detecting proteins the following primary antibodies in the given concentrations were used: anti-β-Actin (Cell Signaling Technology, 4970S, 13E5) 1:2000, anti-VHL (Cell Signaling Technology, #68547) 1:1000, anti-Hif-1α (BD Biosciences, 610959, clone 54) 1:1000, anti-hydroxy-HIF-1α (Hyp564) (Cell Signaling Techonology; #3434) 1:1000, anti-PHD2 (Bethyl Laboratories; A300-322A) 1:1000, anti-PHD3 (Bethyl Laboratories; A300-327A) 1:1000, anti-CRBN (Proteintech; 11435-1-AP) 1:1000.
(§5) Following incubation with a horseradish peroxidase-conjugated secondary antibody (Cell Signaling Technology), the signal was developed using enhanced chemiluminescence (ECL) Western Blotting Detection Kit (Amersham) on Amersham Hyperfilm ECL film (Amersham).
Band quantification was performed using ImageJ software and reported as relative amount as ratio of the each protein band relative to the lane's loading control. […]

The target in assay [2] is pVHL19 (VCB complex: VHL with Elongin B and Elongin C) (Homo sapiens, UniProt P40337). Nature of the assay: ITC titration against VCB, short VHL isoform. Format: binding. Particulars: for binding to VCB detected by ITC: ITC against VCB; for Kd / ΔG / ΔH / α (cooperativity/avidity) / −TΔS / n (stoichiometry): ITC; for Kd / ΔG / ΔH / α (cooperativity/avidity) / −TΔS: pVHL19; for n (stoichiometry): pVHL19, 25° C. The method, then: Titrations were performed on an ITC200 micro-calorimeter (GE Healthcare). […] The final DMSO concentration was 0.15% v/v. VBC protein experiments were carried out in a buffer containing 20 mM Bis-tris propane, 150 mM NaCl, 1 mM TCEP, 0.15% v/v DMSO, pH 7.4. The titrations consisted of 19 injections of 2 μL compounds solution (150 μM, in the syringe) at a rate of 2 s/μL at 120 s time intervals into the VCB protein solution (20 μM, in the cell). An initial injection of compound solution (0.4 μL) was made and discarded during data analysis. All experiments were performed at 25° C., whilst stirring the syringe at 600 rpm. The data were fitted to a single binding site model to obtain the stoichiometry n, the dissociation constant Kd and the enthalpy of binding ΔH using the Microcal LLC ITC200 Origin software provided by the manufacturer.
Chain of pVHL19 (VCB complex: VHL with Elongin B and Elongin C) (P40337 54-213): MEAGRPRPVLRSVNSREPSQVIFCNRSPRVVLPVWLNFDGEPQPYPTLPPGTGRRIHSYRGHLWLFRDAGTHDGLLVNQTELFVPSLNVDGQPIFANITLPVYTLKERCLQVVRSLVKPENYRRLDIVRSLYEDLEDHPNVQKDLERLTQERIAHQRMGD
Chain of pVHL19 (VCB complex: VHL with Elongin B and Elongin C) (Q15370 1-104 partner limits assumed): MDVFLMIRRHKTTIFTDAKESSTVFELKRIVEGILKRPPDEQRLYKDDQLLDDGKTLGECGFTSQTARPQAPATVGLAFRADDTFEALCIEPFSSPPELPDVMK
Chain of pVHL19 (VCB complex: VHL with Elongin B and Elongin C) (Q15369 17-112 partner limits assumed): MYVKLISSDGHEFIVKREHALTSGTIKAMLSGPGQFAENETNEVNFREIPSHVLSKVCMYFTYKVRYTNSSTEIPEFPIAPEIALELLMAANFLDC

The target in assay [3] is VCB complex (Homo sapiens, UniProt P40337). Kind of assay: Size exclusion chromatography of VCB complex formation. It counts as binding. To be noted: SEC, VCB 50 μM, compound 30 μM. The procedure:
SEC experiments were carried out in a AKTA pure system (GE Healthcare) at room temperature. The oligomeric state of the VCB complex in solution was analyzed by gel filtration in a buffer containing 20 mM Bis-Tris (pH 7), 150 mM NaCl and 1 mM 1,4-dithiothreitol (DTT) using a Superdex 200 Increase 10/300 GL column (GE Healthcare) calibrated with globular proteins of known molecular weight (GE Healthcare, 28-4038-41/42). […] Sample volume for each injection was 200 μL, and the flow rate was 0.5 mL/min. Peak elution was monitored using ultraviolet absorbance at 280 nm.

For assay [4], the system named is HIF-1α / hydroxylated HIF-1α (Hdy-HIF-1α). Nature of the assay: Western blot of HIF-1α and Hdy-HIF-1α levels in HeLa cells. Format: cell-based, Human. The method, then:
as §1, §2, §3, §4, §5
Band quantification was performed using ImageJ software and reported as relative amount as ratio of the each protein band relative to the lane's loading control. The values obtained were then normalized to 0.1% DMSO vehicle control.
(A western blot detects proteins with antibodies after separation by electrophoresis.)

T1 sequence (P40337 whole entry, canonical isoform): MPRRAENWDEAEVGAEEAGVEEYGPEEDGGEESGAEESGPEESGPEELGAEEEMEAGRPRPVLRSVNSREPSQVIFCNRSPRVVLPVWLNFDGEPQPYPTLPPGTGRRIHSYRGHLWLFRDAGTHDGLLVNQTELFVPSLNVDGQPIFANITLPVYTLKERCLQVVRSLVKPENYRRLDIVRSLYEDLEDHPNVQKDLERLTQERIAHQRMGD
Chain of VCB complex (P40337 54-213 limits assumed): as the sequence (P40337 54-213) above
Chain of VCB complex (Q15370 1-104 partner limits assumed): as the sequence (Q15370 1-104 partner limits assumed) above
Chain of VCB complex (Q15369 17-112 partner limits assumed): as the sequence (Q15369 17-112 partner limits assumed) above

Turning to `Cc1ncsc1-c1ccc(CNC(=O)[C@@H]2C[C@H](O)CN2C(=O)[C@@H](NC(=O)COCCOCCOCCOCCOCCOCC(=O)N[C@H](C(=O)N2C[C@@H](O)C[C@H]2C(=O)NCc2ccc(-c3scnc3C)cc2)C(C)(C)C)C(C)(C)C)cc1` [CMP98, N^1,N^20-bis((S)-1-((2S,4S)-4-hydroxy-2-((4-(4-methylthiazol-5-yl)benzyl)carbamoyl)pyrrolidin-1-yl)-3,3-dimethyl-1-oxobutan-2-yl)-3,6,9,12,15,18-hexaoxaicosanediamide], the “depletion/degradation of VHL (pVHL30)” value in assay [1] is on record as “unable to induce degradation of VHL”. In addition, the “binding to VCB detected by ITC” value in assay [2] is given as “binding was not detected”. In assay [3], the “shift of VCB peak / ternary complex formation” value is reported as “no shift”.
Broadly, the Kd is the free concentration of one partner at which half of the binding sites on the other are occupied at equilibrium, for simple one-to-one binding. Lower therefore signals tighter binding. Consider `CC(=O)N[C@H](C(=O)N1C[C@H](O)C[C@H]1C(=O)NCc1ccc(-c2scnc2C)cc1OCCOCCOCCOCCOCCOc1cc(-c2scnc2C)ccc1CNC(=O)[C@@H]1C[C@@H](O)CN1C(=O)[C@@H](NC(C)=O)C(C)(C)C)C(C)(C)C` [CMP106, (2S,2′S,4R,4′R)—N,N′-((((3,6,9,12-tetraoxatetradecane-1,14-diyl)bis(oxy))bis(4-(4-methylthiazol-5-yl)-2,1-phenylene))bis(methylene))bis(1-((S)-2-acetamido-3,3-dimethylbutanoyl)-4-hydroxypyrrolidine-2-carboxamide)], for which, in assay [2], the Kd was 111 ± 8 nM, the ΔG was -9.5 kcal/mol, the ΔH is -12.6 ± 0.1 kcal/mol and the “α (cooperativity/avidity)” value is 1.7. Also, in assay [2], the “−TΔS” value is 3.1 kcal/mol and the “n (stoichiometry)” value is listed as 0.535 ± 0.004.
`Cc1ncsc1-c1ccc(CNC(=O)[C@@H]2C[C@@H](O)CN2C(=O)[C@@H](NC(=O)C2(C#N)CC2)C(C)(C)C)c(OCCOCCOCCOCCOCCOc2cc(-c3scnc3C)ccc2CNC(=O)[C@@H]2C[C@@H](O)CN2C(=O)[C@@H](NC(=O)C2(C#N)CC2)C(C)(C)C)c1` [CMP108, (2S,2′S,4R,4′R)—N,N′-((((3,6,9,12-tetraoxatetradecane-1,14-diyl)bis(oxy))bis(4-(4-methylthiazol-5-yl)-2,1-phenylene))bis(methylene))bis(1-((S)-2-(1-cyanocyclopropane-1-carboxamido)-3,3-dimethylbutanoyl)-4-hydroxypyrrolidine-2-carboxamide)]: the “binding to VCB detected by ITC” value in assay [2] is “data could not be fitted to a binding curve”.
For the compound `CC(=O)N[C@H](C(=O)N1C[C@H](O)C[C@H]1C(=O)NCc1ccc(-c2scnc2C)cc1OCCOCCOCCOCCOCCOCC(=O)N[C@H](C(=O)N1C[C@H](O)C[C@H]1C(=O)NCc1ccc(-c2scnc2C)cc1)C(C)(C)C)C(C)(C)C` [CMP112, (2S,4R)-1-((S)-2-acetamido-3,3-dimethylbutanoyl)-4-hydroxy-N-(2-(((S)-19-((2S,4R)-4-hydroxy-2-((4-(4-methylthiazol-5-yl)benzyl)carbamoyl)pyrrolidine-1-carbonyl)-20,20-dimethyl-17-oxo-3,6,9,12,15-pentaoxa-18-azahenicosyl)oxy)-4-(4-methylthiazol-5-yl)benzyl)pyrrolidine-2-carboxamide], in assay [2], binding was put at a Kd of 235 ± 22 nM, the ΔG was -9.1 kcal/mol, the ΔH was -14.8 ± 0.2 kcal/mol and the “α (cooperativity/avidity)” value is 0.8. Moreover, in assay [2], the “−TΔS” value is reported as 5.8 kcal/mol and the “n (stoichiometry)” value is 0.498 ± 0.006.
`Cc1ncsc1-c1ccc(CNC(=O)[C@@H]2C[C@@H](O)CN2C(=O)[C@@H](NC(=O)COCCOCCOCCOCCOCCOc2cc(-c3scnc3C)ccc2CNC(=O)[C@@H]2C[C@@H](O)CN2C(=O)[C@@H](NC(=O)C2(C#N)CC2)C(C)(C)C)C(C)(C)C)cc1` [CMP113, (2S,4R)-1-((S)-2-(tert-butyl)-20-(2-(((2S,4R)-1-((S)-2-(1-cyanocyclopropane-1-carboxamido)-3,3-dimethylbutanoyl)-4-hydroxypyrrolidine-2-carboxamido)methyl)-5-(4-methylthiazol-5-yl)phenoxy)-4-oxo-6,9,12,15,18-pentaoxa-3-azaicosanoyl)-4-hydroxy-N-(4-(4-methylthiazol-5-yl)benzyl)pyrrolidine-2-carboxamide]: in assay [2], binding was put at a Kd of 117 ± 25 nM, the ΔG was -9.5 kcal/mol, the ΔH was -6.4 ± 0.2 kcal/mol and the “α (cooperativity/avidity)” value is recorded as 1.7. Also, in assay [2], the “−TΔS” value was -3.1 kcal/mol and the “n (stoichiometry)” value was 0.934 ± 0.005.
For `CC(=O)N[C@H](C(=O)N1C[C@H](O)C[C@H]1C(=O)NCc1ccc(-c2scnc2C)cc1)C(C)(C)C` [VH032, reference compound], the “protein levels of Hdy-HIF-1α” value in assay [4] (HeLa, 1 μM, 10 h) is given as “completely ineffective”. Also, the “concentration at which active in cells” value in assay [4] (cells) was approximately 100 µM.
